For one experiment, the target named is T1, p38 alpha (Homo sapiens, UniProt Q16539).
T1 construct: purchased Invitrogen PV3304
The experiment is described as follows: P38 alpha enzyme inhibition assay (Alphascreen kinase activity assay). Conditions: 100 pM p38 alpha, 2 hours preincubation at 25° C., 250 μM ATP, ATF-2 fusion protein; read-out: p38α inhibition. The class given is biochemical. The method, boiled down: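 Phosphorylation of ATF-2 fusion protein (0.3 μg/ml) read by AlphaScreen with anti-phospho-ATF2 antibody after 1 h kinase reaction at 25 °C, initiated by 250 μM ATP. Compounds first incubated 2 h at 25 °C with 100 pM p38 alpha in pH 7.5 HEPES buffer, 1% DMSO. IC50 derived from concentration-response data.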
For orientation: Alpha assays give light when donor and acceptor beads are brought close together.

Experiment [1] deals with Peripheral Blood Mononuclear Cells (PBMCs), TNFα release. The experiment in a line: LPS-stimulated PBMC TNFα release assay. In kind it is cell-based. Conditions: human PBMC, LPS (10 ng/ml), 18 h, compound 1 h before LPS; read-out: LPS-stimulated PBMC TNFα release inhibition. The method, boiled down: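 TNFα in cell-free supernatant, read on MSD plates, gave % inhibition curves and IC50 (≥3 separate experiments). Healthy-donor PBMCs had 1 h compound exposure at 37 °C in 1% FBS medium, then 18 h stimulation with 10 ng/ml LPS, after a 3 h serum-free rest.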

pIC50: −log10 of the molar value. Where only a bound is given, the exact number is not on record here.

T1 sequence (Q16539 whole entry): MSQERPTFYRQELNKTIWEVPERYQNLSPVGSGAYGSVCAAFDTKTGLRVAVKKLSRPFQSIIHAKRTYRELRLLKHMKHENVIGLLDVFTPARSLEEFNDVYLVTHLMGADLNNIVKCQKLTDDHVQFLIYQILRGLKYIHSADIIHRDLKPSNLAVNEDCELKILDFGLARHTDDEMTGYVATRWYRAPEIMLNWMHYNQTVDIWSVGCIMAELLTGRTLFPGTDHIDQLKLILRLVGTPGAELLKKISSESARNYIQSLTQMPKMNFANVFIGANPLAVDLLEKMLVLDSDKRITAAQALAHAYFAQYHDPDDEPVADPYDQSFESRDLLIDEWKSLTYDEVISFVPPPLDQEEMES

For `COCCN(C)CCNC(=O)c1nc(NC(=O)N[C@H]2CC[C@@H](Oc3ccc4nnc(C(C)(C)C)n4c3)c3ccccc32)cc(C(C)(C)C)n1` [Example 67, 4-(tert-butyl)-6-(3-((1S,4R)-4-((3-(tert-butyl)-[1,2,4]triazolo[4,3-a]pyridin-6-yl)oxy)-1,2,3,4-tetrahydronaphthalen-1-yl)ureido)-N-(2-((2-methoxyethyl)(methyl)amino)ethyl)pyrimidine-2-carboxamide], the pIC50 was 8.00 to 9.00 on p38 alpha and 8.30 to 9.00 in experiment [1].
On the same counts, the results for `CC(C)(C)Cc1nnc2ccc(O[C@@H]3CC[C@H](NC(=O)Nc4cc(C(C)(C)C)nc(C(=O)NCCN5CCOCC5)n4)c4ccccc43)cn12` [Example 99, 4-(tert-butyl)-N-(2-morpholinoethyl)-6-(3-((1S,4R)-4-((3-neopentyl-[1,2,4]triazolo[4,3-a]pyridin-6-yl)oxy)-1,2,3,4-tetrahydronaphthalen-1-yl)ureido)pyrimidine-2-carboxamide] are 8.00 to 9.00 and below 8.30.

Values taken from patent US10364245B2 (CHIESI FARMACEUTICI S.p.A., priority 2017, dated 2019).
